Assay results reported in ChEMBL document CHEMBL1140853, “The stereochemistry of N-methyl and aryl substituents determine the biological activities of 3-aryl-8-methyl-8-azabicyclo[3.2.1]oct-2,3-enes” (Bioorg Med Chem, 2009).

Legend:
[1] = organism: Homo sapiens; assay: Selectivity for human SERT over human NET
[2] = organism: Homo sapiens; assay: Selectivity for human SERT over human DAT

Structure (SMILES)	Ratio [1]	Ratio [2]
CN1C2C=C(c3ccc4c(c3)Cc3ccccc3-4)CC1CC2 (configuration not stated)	232	52.2
CN1C2C=C(c3ccccc3-c3ccccc3)CC1CC2 (configuration not stated)	3.8	5.4
CN1C2C=C(c3cccc(-c4ccccc4)c3)CC1CC2 (configuration not stated)	34	10.8
CN1C2C=C(c3cccc4ccccc34)CC1CC2 (configuration not stated)	94.4	11.6
CN1C2C=C(c3c[nH]c4ccccc34)CC1CC2 (configuration not stated)	54	8.3
CN1C2C=C(C3c4ccccc4-c4ccccc43)CC1CC2 (configuration not stated)	120	13.6
